Results taken from a melting point compilation (Tetko et al.; mined from patent text by program, amines drawn as free bases though some values may be those of a salt).

For `NC(=O)c1cc(Br)c(O)c(Br)n1`, the melting point was 261 to 266 °C.
With `CCn1c(=O)n(OCc2ccccc2)c(=O)c2cc(F)c(Cl)nc21` the melting point was 156 to 157 °C.
For `O=C(O)c1csnc1-c1cccc(Cl)c1`, the melting point was 215 to 216 °C.
Molecule `CC(C)(C)OC(=O)N[C@@H]1CCCC[C@H]1OCC(=O)O` (relative stereo) has a melting point of 205 to 207 °C.
`Cc1oc(-c2ccccc2)nc1COc1cccc(CSc2cccc(CC(=O)O)c2)c1` showed a melting point of 81 to 82 °C.
With `N[C@H](Cc1ccc2ccccc2c1)C(=O)O` the melting point was 242 to 244 °C.
In the case of `CNC(=S)NCCSCc1nscc1Br`, the melting point is reported as 62 to 63 °C.
With `CC(=O)SCC(C(=O)Nc1oc(CCC(=O)O)c2ccccc12)C(F)(F)F` (stereo unspecified) the melting point was 139 to 140 °C.
Work on `O=C(O)CCCC(=O)N1CCC(C2c3ccccc3C=Cc3ccccc32)CC1` yielded a melting point of 180 to 186 °C.
Molecule `CCc1nc(-c2ccc(OCCCn3cnc4ccccc43)cc2)no1` has a melting point of 100 to 101 °C.
With `Nc1cc(O)c2c(c1)C(=O)c1cccc(O)c1C2=O` the melting point was 250 to 252 °C.
With `CCOC(=O)c1cn(CCCl)c2nc(-c3ccncc3)c(F)cc2c1=O` the melting point was 192 to 194 °C.
In the case of `Cc1c(N2CCC3(CC3N)C2)c(F)c(N)c2c(=O)c(C(=O)O)cn([C@@H]3C[C@@H]3F)c12` (stereo partly specified), the melting point is reported as 118 to 120 °C.
With `COC(=O)c1ccc(O)c(C(C)(C)C)c1` the melting point was 144 to 145 °C.
`CCOC(=O)c1nnn(Cc2ccccc2)c1N` showed a melting point of 153 °C.
For `COc1ccc(C=Cc2c(Cl)cncc2Cl)c2c1OC1(CCCC1)O2`, the melting point was 100 to 101 °C.
With `CC(=O)c1c(CBr)n(S(=O)(=O)c2ccccc2)c2ccc(Cl)cc12` the melting point was 155 °C.
Molecule `CNc1nnc(-c2ccc3ncn(-c4ccc(OC(F)(F)F)cc4)c3c2)o1` has a melting point of 183 to 184 °C.
In the case of `O=C(O)c1cc(-c2ccc3c(c2)CCO3)nn(CCCc2ccccc2Cl)c1=O`, the melting point is reported as 137 to 140 °C.
Work on `CCOC(=O)C(Cc1ccc(NC(C)=O)c([N+](=O)[O-])c1)(NC(C)=O)C(=O)OCC` yielded a melting point of 172 °C.
For `Nc1ccc(-c2ncnn2-c2ccc(F)cc2)cc1`, the melting point was 128 to 130 °C.
Work on `Cc1csc2ncc(C(O)CCCCc3ccccc3)n12` (stereo unspecified) yielded a melting point of 120 to 121 °C.
`Nc1cc2c(Nc3ccc(Br)c(Cl)c3)ncnc2cn1` showed a melting point of 272 to 275 °C.
`O=C(NC1CCN(C/C=C\CC(c2ccccc2)c2ccccc2)CC1)c1ccccc1Oc1ccccc1` showed a melting point of 91 to 94 °C.
With `Nc1c(NCCCO)cccc1OCc1ccccc1` the melting point was 82 to 83 °C.
With `CN(C)CC1(c2cccc(C(F)(F)F)c2)CCN(C(=O)CN2CCN(c3ccccc3)CC2)CC1` the melting point was 123 to 124 °C.
For `CCc1nn(CCO)c(CC)c1Cc1cc(C#N)cc(C#N)c1`, the melting point was 115 to 117 °C.
`CCc1cc2c(cc1CC)C(=O)C(O)=CC2=O` gave a melting point of 105 to 109 °C.
`COC(=O)c1cc([N+](=O)[O-])cn1C` showed a melting point of 122 to 124 °C.
`CCNc1ncccc1C(=O)Nc1c(C)ccnc1Cl` showed a melting point of 122 to 124 °C.
`COc1ccc(CCc2ccccn2)cc1OCCCCCc1ccccc1` gave a melting point of 59 to 62 °C.
For `CNC(=S)N1CCc2c(ncn2C)C1`, the melting point was 238 °C.
With `O=C(Nc1ccccn1)c1cnc2c(C(F)(F)F)cccc2c1O` the melting point was 335 to 336 °C.
Molecule `COc1ccc(S(=O)(=O)C(CC=C(C)C)(CC=C(C)C)C(=O)NO)cc1` has a melting point of 93 to 96 °C.
`OCc1ccc2c(c1)C(C(Cl)(Cl)Cl)OC(C(Cl)(Cl)Cl)O2` (stereo unspecified) gave a melting point of 134 to 136 °C.
`O=c1[nH]c2cc(Br)cc(Br)c2c(=O)n1Cc1ccccc1` showed a melting point of over 280 °C.
In the case of `OCCOc1cccc2cccnc12`, the melting point is reported as 82 to 84 °C.
In the case of `CCOC(=O)CCC(=O)OCC(F)(F)Cn1nc(C)c(-c2ccc3c(c2)NC(=O)CO3)c1-c1ccc(F)cc1`, the melting point is reported as 100 °C.
In the case of `COC(=O)Cn1c(Cc2ccccc2)ccc(NC(=O)CCc2ccccc2)c1=O`, the melting point is reported as 95 to 97 °C.
`O=C(NC(O)C(=O)O)OCc1ccccc1` (stereo unspecified) gave a melting point of 194 to 198 °C.
In the case of `CCc1c(-c2ccc(O)cc2)c2cc(COCCCN(C)C)c3cccc1n32`, the melting point is reported as 146 to 147 °C.
In the case of `COc1ccc2c(c1)CN(C=O)N=C2Cc1c(Cl)cncc1Cl`, the melting point is reported as 165 to 167 °C.
For `O=c1[nH]cc(Cc2cccnc2)cc1[N+](=O)[O-]`, the melting point was 216 to 217 °C.
Work on `O=c1oc2c(c(O)c1C(c1cccc(S(=O)(=O)Nc3ccccc3)c1)C1CC1)CCCCCC2` (stereo unspecified) yielded a melting point of 200 to 203 °C.
Molecule `CCOC(=O)COc1ccc(Nc2nccc(-c3ccncc3)n2)cc1` has a melting point of 109 to 111 °C.
`Cc1ccc(O)cc1N=C(c1ccccc1)c1ccccc1` showed a melting point of 106 to 108 °C.
With `CC1(C)CN(CC2COc3ccccc3C2)c2nc(-c3ccncn3)cc(=O)n2C1` (racemic) the melting point was 84 to 86 °C.
Work on `CN(Cc1ccccc1)C1CCN(c2c(F)cc([N+](=O)[O-])c(F)c2CCl)C1` (stereo unspecified) yielded a melting point of 94 to 98 °C.
Work on `CC1C(=O)Nc2c(C(=O)c3ccc(Br)cc3)cccc21` (stereo unspecified) yielded a melting point of 245 to 247 °C.
`CC(C)CC(C)c1ccccc1NC(=O)c1cn(C)cc1C(F)(F)F` (stereo unspecified) gave a melting point of 83 to 85 °C.
`Nc1sc2c(c1C(=O)c1ccccc1)CCNC2` gave a melting point of 160 to 162 °C.
For `O=[N+]([O-])c1cnc(NCC(O)CO)cn1` (stereo unspecified), the melting point was 185 to 187 °C.
`COC(=O)c1cccc(-c2ccoc2C(F)F)c1` gave a melting point of 55 to 56 °C.
Molecule `Cn1cc(C(=O)NCc2ccc(Cl)cc2)c(=O)c2cc(C#CCO)cc(F)c21` has a melting point of 186 to 188 °C.
`COc1ccc(-c2cc(OC3SCC(O)C(O)C3O)ccn2)cc1` (stereo unspecified) gave a melting point of 150 to 154 °C.
For `Cc1oc(-c2ccccc2)nc1Cc1cccc(CC2COC(C)(C)OC2)c1`, the melting point was 85 to 87 °C.
`O=C[C@H]1CC[C@H](c2ccc(F)cc2)CC1` showed a melting point of under 30 °C.
`O=C(O)C(O)CSc1ccc(-c2ccccc2)cc1` (stereo unspecified) showed a melting point of 176 °C.
Molecule `CCCSc1nc(Sc2ccc(OC)cc2)c(C(=O)O)n1Cc1cc2c(cc1Cl)OCO2` has a melting point of 164 °C.
Work on `CCOC(=O)c1ncn2c1c(=O)n(C)c1ncccc12` yielded a melting point of 233 to 234 °C.
Molecule `O=C(O)CN(c1ccccc1)S(=O)(=O)c1ccccc1` has a melting point of 166 to 167 °C.
`Cc1cccc(C(=NO)c2ccc(Cl)cc2)c1O` gave a melting point of 178 °C.
`NCCNc1cc(Cl)cc(NCCN)c1[N+](=O)[O-]` showed a melting point of 113 °C.
For `CNC(=O)CNC(=S)c1cccnc1`, the melting point was 135 to 137 °C.
Work on `N#CCc1cccc(CBr)c1[N+](=O)[O-]` yielded a melting point of 71 to 73 °C.
For `O=C(c1cc2ccccc2[nH]1)C1CSC(c2cccnc2)N1` (stereo unspecified), the melting point was 142 to 144 °C.
`O=[N+]([O-])CC(SC(=S)N1CCCCC1)c1ccccc1` (stereo unspecified) gave a melting point of 86 to 90.5 °C.
Molecule `CCCCCCCCCCCCCCCCS(=O)(=O)NCCCCCCCN(C)C` has a melting point of 56 to 57.5 °C.
Work on `CCCC(=O)Nc1n[nH]c2cc(Cl)c(-c3ccncc3)cc12` yielded a melting point of 260 °C.
With `N#CS/C=C\C(=O)Oc1ccccc1` the melting point was 79 to 83 °C.
With `O=C1CC(c2cccc(-n3ccnn3)c2)=Nc2cc(O)c(-c3ccc(F)cc3)cc2N1` the melting point was over 250 °C.
In the case of `CCN1CCN(c2ccc([N+](=O)[O-])cc2OC)CC1`, the melting point is reported as 84 to 85 °C.
`C=CCN1Cc2cnc(C)n2-c2ccc(Cl)cc2C1c1ccccc1F` (stereo unspecified) showed a melting point of 140 to 145 °C.
`NC(=O)c1nnn(C2OC(CO)C(O)C2O)c1N` (stereo unspecified) gave a melting point of 159 to 161 °C.
`N#Cc1ccc(OCC(O)CCCl)cc1` (stereo unspecified) showed a melting point of 78 to 80 °C.
With `CCCCNc1ccc(-c2c(N)nc(N)nc2CC)cc1[N+](=O)[O-]` the melting point was 252 to 254 °C.
Work on `CNC(=O)C1=CC(C)(C)Oc2ccc(C(F)(F)F)cc21` yielded a melting point of 146 to 150 °C.
Work on `CC(C)CC1CCN(CCc2ccccc2)C1=O` (stereo unspecified) yielded a melting point of 69 to 71 °C.
`CN1C(=O)N(c2ccc(Cl)cc2)S(=O)(=O)c2ccc(OCC(=O)O)cc21` showed a melting point of 228 to 230 °C.
For `CCOCc1nc2c(N)nc(C)c(C)c2n1CCNC(=O)C(C)C`, the melting point was 172 to 174 °C.
`Cc1cc(CC=CCO)c(O)c2c1NC(=O)C2(C)C` gave a melting point of 174 °C.
`O=C(O)CCCOc1ccccc1OCc1ccccc1` gave a melting point of 75 to 76 °C.
With `CC(=N)NC/C(F)=C\CC[C@H](N)C(=O)O` the melting point was 51.5 to 56.3 °C.
For `O=Cc1ccc(-c2noc(-c3ccc(C(F)(F)F)cc3)n2)cc1`, the melting point was 145 to 146 °C.
Work on `COc1ccc2nccc(CCC[C@@H]3CCN(CCC(F)c4ccccc4)C[C@@H]3C(=O)O)c2c1` (stereo partly specified) yielded a melting point of 60 °C.
Molecule `C=C(C)C(=O)N1CCC[C@H]1C(=O)O` has a melting point of 102 to 104 °C.
In the case of `CN(C)S(=O)(=O)N[C@@H](Cc1ccc(Nc2nccc3cnccc23)cc1)C(=O)O`, the melting point is reported as 211 °C.
Work on `Nc1cnccc1CCCOc1cccnc1Oc1cccc(Cl)c1` yielded a melting point of 140 to 142 °C.
Work on `CC(=O)Nc1cccc(OCc2ccccc2)c1CCOC(C)=O` yielded a melting point of 118 to 119 °C.
With `CCOC(=O)c1c(-c2ccc(OC)cc2)n2c3c(cccc13)OC(CCN1CCN(c3cc(C)ccn3)CC1)C2` (stereo unspecified) the melting point was 149 to 150 °C.
`NC(=O)c1ccc2c(c1)S(=O)(=O)c1ccccc1C2=O` showed a melting point of 282 to 283 °C.
Molecule `CC(=O)N1CCC(CCC(=O)c2ccc3c(c2)CCN3C(C)=O)CC1` has a melting point of 148 to 149 °C.
`CSC(c1ccc(Cl)cc1)c1ccc(Cl)cc1` gave a melting point of 56 to 57 °C.
With `N#Cc1nn(-c2c(Cl)cc(C(F)(F)F)cc2Cl)c(N)c1-c1ccoc1` the melting point was 180 to 181 °C.
For `CN1CNC(=S)N(c2ccccc2)C1`, the melting point was 175 to 176 °C.
Work on `N[C@@H](Cc1ccc(C(F)(F)F)cc1)[C@H](O)c1ccncc1` (racemic) yielded a melting point of 97 to 98 °C.
With `Cc1ccccc1C(=O)Nc1ccc(C(=O)O)cc1` the melting point was 270 to 275 °C.
In the case of `O=C(c1ccc(O)cc1O)c1ccccc1F`, the melting point is reported as 109 to 111 °C.
Molecule `CC(C)n1c(=Nc2ccccc2)sc2ncccc2c1=O` has a melting point of 85 to 86 °C.
For `CC(=O)Nc1ccc(-c2cc(-c3ccc(NC(C)=O)cc3C)cc(-c3ccc(NC(C)=O)cc3C)c2)c(C)c1`, the melting point was 180 °C.
For `CC(=O)c1ccccc1Nc1ccc(O)cc1`, the melting point was 168 to 169 °C.
For `COn1cc(C(=O)NCc2ccc(Cl)cc2)c(=O)c2ccccc21`, the melting point was 155 to 160 °C.
Molecule `CCOC(=O)c1c(-c2ccc(F)cc2)cc(-c2cccc3c2OCO3)nc1C(C)C` has a melting point of 148 to 150 °C.
`CCCOc1ccc(-c2ccc3c(c2)C=C(C(=O)Nc2ccc(CN(C)C4CCOCC4)cc2)CCS3(=O)=O)cc1OCC` showed a melting point of 203 to 205 °C.
`CCOC(=O)C(C(=O)OCC)C(=O)C1CCC2C3CCC4CC(O)CCC4(C)C3C(=O)CC12C` (stereo unspecified) showed a melting point of 116 to 117 °C.
Molecule `CC(C)n1nc(-c2nc(C#N)c(C#N)nc2-c2ccccc2)ccc1=O` has a melting point of 201 to 202 °C.
